Test results published in the NIST ThermoML archive (doi:10.1016/j.fluid.2012.05.003).
± gives the expanded uncertainty stated by the source.

Conditions: Crystal; DTA

O=C(O)CNCP(=O)(O)O [(phosphonomethyl)glycine]
Normal melting temperature: 214.7 ± 0.5 °C
